Measurements reported in patent publication US20230382888A1, “HDAC INHIBITOR SOLID STATE FORMS” (Viracta Subsidiary, Inc., priority 2020, published 2023).
Converted amounts (≈) assume the structure as drawn. “Also recorded” adds a separate entry of the source. Counter-ions that a name gives are not always drawn. Each block holds one compound with its values, some of them ahead of it.

Legend:
[1] = Static storage stability at elevated temperature/humidity (XRPD, HPLC); assay type: physicochemical; details: for Solid form by XRPD after static storage: 7 days (1 week); for HPLC purity after static storage / Appearance after static storage: 1 week
[2] = Thermodynamic aqueous solubility; assay type: physicochemical; details: for pH of saturated solution: water, after 24 hours equilibration at 25° C.
Description: Aqueous solubility was determined by suspending sufficient compound in 0.5 ml deionized water to give a maximum final concentration of 40 mg/ml of the parent free-form of the compound. The suspension was equilibrated at 25° C., on a Heidolph plate shaker set to 750 rpm for 24 hours. After equilibration, the appearance was noted and the pH of the saturated solution was measured. Samples forming suspensions were centrifuged for 4 min at 13,500 rpm. Samples were then filtered through a glass fiber C filter (particle retention 1.2 μm), before dilution with H2 O as appropriate. Quantitation was by HPLC (see Table 2 for parameters) with reference to a standard solution of approximately 0.15 mg/ml in DMSO. Different volumes of the standard, diluted and undiluted sample solutions were injected. The solubility was calculated using the peak areas determined by integration of the peak found at the same retention time as the principal peak in the standard injection. Analysis was performed on an Agilent HP1100/Infinity II 1260 series system equipped with a diode array detector and using OpenLAB software.

[3] = Intrinsic dissolution rate (IDR) in FaSSGF; assay type: physicochemical; details: Fasted State Simulated Gastric Fluid
[4] = Gravimetric vapour sorption (GVS); assay type: physicochemical; details: for Hygroscopicity by GVS: 25° C.; for XRPD post-GVS (solid form): residue after GVS; for Water uptake, first sorption cycle: 40-90% RH; for Starting water content in GVS: at 40% RH
Description: Sorption isotherms were obtained using a SMS DVS Intrinsic moisture sorption analyser, controlled by DVS Intrinsic Control software. The sample temperature was maintained at 25° C. by the instrument controls. The humidity was controlled by mixing streams of dry and wet nitrogen, with a total flow rate of 200 ml/min. The relative humidity was measured by a calibrated Rotronic probe (dynamic range of 1.0 — 100% RH), located near the sample. The weight change, (mass relaxation) of the sample as a function of % RH was constantly monitored by a microbalance (accuracy ±0.005 mg). Typically, 20-30 mg of sample was placed in a tared mesh stainless steel basket under ambient conditions. The sample was loaded and unloaded at 40% RH and 25° C. (typical room conditions). A moisture sorption isotherm was performed as outlined below (2 scans per complete cycle). The standard isotherm was performed at 25° C. at 10% RH intervals over a 0-90% RH range. Typically, a double cycle (4 scans) was carried out. Data analysis was carried out within Microsoft Excel using the DVS Analysis Suite. [table]

[5] = assay type: physicochemical
From the text: There was insufficient residue to characterize these further.

Structure (SMILES): O=C(NO)c1cnc(N2CC3C(C2)C3NCc2ccc3cc(F)ccc3n2)nc1 (stereo not shown) [Mesylate Form 6, N-hydroxy 2-{6-[(6-fluoro-quinolin-2-ylmethyl)-amino]-3-aza-bicyclo[3.1.0]hex-3-yl}pyrimidine-5-carboxamide]
Solid form by XRPD after static storage ([1]; 25° C./97% RH): converted to Mesylate Form 1
Solid form by XRPD after static storage ([1]; 40° C./75% RH): converted to Mesylate Form 1

Structure (SMILES): O=C(NO)c1cnc(N2CC3C(C2)C3NCc2ccc3cc(F)ccc3n2)nc1 (stereo not shown) [Mesylate Form 7, N-hydroxy 2-{6-[(6-fluoro-quinolin-2-ylmethyl)-amino]-3-aza-bicyclo[3.1.0]hex-3-yl}pyrimidine-5-carboxamide]
Solid form by XRPD after static storage ([1]; 25° C./97% RH): converted to Mesylate Form 1
Solid form by XRPD after static storage ([1]; 40° C./75% RH): converted to Mesylate Form 1

Structure (SMILES): O=C(NO)c1cnc(N2C[C@@H]3[C@H](C2)[C@H]3NCc2ccc3cc(F)ccc3n2)nc1 [Free Base Form A, N-hydroxy 2-{6-[(6-fluoro-quinolin-2-ylmethyl)-amino]-3-aza-bicyclo[3.1.0]hex-3-yl}pyrimidine-5-carboxamide]
solubility at 24 h ([2]; thermodynamic from solid, deionized water, 25° C., 24 hours, maximum final concentration 40 mg/ml of parent free-form): 1 µg/mL (≈ 2.54 µM)
pH of saturated solution [2]: (pH = 7.4)
IDR in FaSSGF [3]: 1.1 mg/min/cm^2

Structure (SMILES): O=C(NO)c1cnc(N2C[C@@H]3[C@H](C2)[C@H]3NCc2ccc3cc(F)ccc3n2)nc1 [Mesylate Form 2, N-hydroxy 2-{6-[(6-fluoro-quinolin-2-ylmethyl)-amino]-3-aza-bicyclo[3.1.0]hex-3-yl}pyrimidine-5-carboxamide]
Solid form by XRPD after static storage ([1]; 25° C./97% RH): unchanged; also recorded: Mesylate Form 2
Solid form by XRPD after static storage ([1]; 25° C./97% RH, listed as Form 2): stable after 1 week
Solid form by XRPD after static storage ([1]; 40° C./75% RH): unchanged; also recorded: Mesylate Form 2
Solid form by XRPD after static storage ([1]; 40° C./75% RH, listed as Form 2): stable after 1 week
Hygroscopicity by GVS [4]: slightly hygroscopic
Hygroscopicity by GVS ([4]; listed as Form 2): slightly hygroscopic
XRPD post-GVS (solid form) [4]: unchanged; also recorded: XRPD Post-GVS: Mesylate Form 2

Structure (SMILES): O=C(NO)c1cnc(N2C[C@@H]3[C@H](C2)[C@H]3NCc2ccc3cc(F)ccc3n2)nc1 [Compound 1, N-hydroxy-2-{6-[(6-fluoro-quinolin-2-ylmethyl)-amino]-3-aza-bicyclo[3.1.0]hex-3-yl}pyrimidine-5-carboxamide]
Solubility in water ([2]; deionized water, 25° C., 24 hours, maximum final concentration 40 mg/ml of parent free-form, listed as Free base): essentially insoluble in water

Structure (SMILES): O=C(NO)c1cnc(N2C[C@@H]3[C@H](C2)[C@H]3NCc2ccc3cc(F)ccc3n2)nc1 [Mesylate Form 5, N-hydroxy 2-{6-[(6-fluoro-quinolin-2-ylmethyl)-amino]-3-aza-bicyclo[3.1.0]hex-3-yl}pyrimidine-5-carboxamide]
HPLC purity after static storage ([1]; 25° C./97% RH): 99.5%
Solid form by XRPD after static storage ([1]; 25° C./97% RH): remained as Mesylate Form 5; also recorded: Unchanged: Mesylate Form 5
HPLC purity after static storage ([1]; 40° C./75% RH): 99.5%
Solid form by XRPD after static storage ([1]; 40° C./75% RH): remained as Mesylate Form 5; also recorded: Unchanged: Mesylate Form 5
Hygroscopicity by GVS [4]: hygroscopic
XRPD post-GVS (solid form) [4]: remaining unchanged; also recorded: stable after GVS analysis; also recorded: XRPD Post-GVS: Mesylate Form 5
Solubility residue (solid form) [5]: new solubility residue patterns

Structure (SMILES): O=C(NO)c1cnc(N2CC3C(C2)C3NCc2ccc3cc(F)ccc3n2)nc1 (stereo not shown) [amorphous mesylate salt, N-hydroxy 2-{6-[(6-fluoro-quinolin-2-ylmethyl)-amino]-3-aza-bicyclo[3.1.0]hex-3-yl}pyrimidine-5-carboxamide]
Solid form by XRPD after static storage ([1]; 25° C./97% RH): Amorphous, with low-level peak at 3.7° 2θ
Solid form by XRPD after static storage ([1]; 25° C./97% RH, listed as amorphous): largely amorphous
Solid form by XRPD after static storage ([1]; 40° C./75% RH): Amorphous, with low-level peak at 3.7° 2θ
Solid form by XRPD after static storage ([1]; 40° C./75% RH, listed as amorphous): largely amorphous

Second part, led by results:

Solid form by XRPD after static storage ([1]; 25° C./97% RH): Poorly crystalline-Mesylate Form 1
Solid form by XRPD after static storage ([1]; 40° C./75% RH): Mesylate Form 1
Structure (SMILES): O=C(NO)c1cnc(N2CC3C(C2)C3NCc2ccc3cc(F)ccc3n2)nc1 (stereo not shown) [Mesylate Form 9, N-hydroxy 2-{6-[(6-fluoro-quinolin-2-ylmethyl)-amino]-3-aza-bicyclo[3.1.0]hex-3-yl}pyrimidine-5-carboxamide]
Appearance after static storage ([1]; 25° C./97% RH): Sample appeared wet-white solid still present
Appearance after static storage ([1]; 40° C./75% RH): color change to yellow; also recorded: Sample appeared ‘damp’-yellow solid present

Solid form by XRPD after static storage ([1]; 25° C./97% RH): converted to Mesylate Form 1
Solid form by XRPD after static storage ([1]; 40° C./75% RH): converted to Mesylate Form 1
Structure (SMILES): O=C(NO)c1cnc(N2CC3C(C2)C3NCc2ccc3cc(F)ccc3n2)nc1 (stereo not shown) [Mesylate Form 8, N-hydroxy 2-{6-[(6-fluoro-quinolin-2-ylmethyl)-amino]-3-aza-bicyclo[3.1.0]hex-3-yl}pyrimidine-5-carboxamide]

HPLC purity after static storage ([1]; 25° C./97% RH): 99.5%
HPLC purity after static storage ([1]; 40° C./75% RH): 99.4%
Water uptake, first sorption cycle [4]: 0.7%
Starting water content in GVS [4]: 9.4%
Gradual water loss, desorption cycle 1 ([4]; down to 20% RH): 0.8%
Thermodynamic solubility in FaSSGF [5]: 24000 µg/mL
Structure (SMILES): O=C(NO)c1cnc(N2C[C@@H]3[C@H](C2)[C@H]3NCc2ccc3cc(F)ccc3n2)nc1 [Mesylate Form 4, N-hydroxy 2-{6-[(6-fluoro-quinolin-2-ylmethyl)-amino]-3-aza-bicyclo[3.1.0]hex-3-yl}pyrimidine-5-carboxamide]
Solid form by XRPD after static storage ([1]; 25° C./97% RH): conversion to Mesylate Form 1; also recorded: converted to Mesylate Form 1
XRPD post-GVS (solid form) [4]: conversion to Mesylate Form 1; also recorded: Post-GVS: Converted to Mesylate Form 1 by XRPD

Solubility in water ([2]; deionized water, 25° C., 24 hours, maximum final concentration 40 mg/ml of parent free-form): 1 µg/mL (≈ 2.54 µM)
pH of saturated solution [2]: (pH = 7.4)
IDR in FaSSGF [3]: 1.8 mg/min/cm^2
Structure (SMILES): O=C(NO)c1cnc(N2C[C@@H]3[C@H](C2)[C@H]3NCc2ccc3cc(F)ccc3n2)nc1 [Free Base Form B, N-hydroxy 2-{6-[(6-fluoro-quinolin-2-ylmethyl)-amino]-3-aza-bicyclo[3.1.0]hex-3-yl}pyrimidine-5-carboxamide]

HPLC purity after static storage ([1]; 25° C./97% RH): 96.6%
Solid form by XRPD after static storage ([1]; 25° C./97% RH, listed as Form 3): remained as Mesylate Form 3
HPLC purity after static storage ([1]; 40° C./75% RH): 97.0%
Solid form by XRPD after static storage ([1]; 40° C./75% RH, listed as Form 3): convert to Mesylate Form 5
Water uptake, first sorption cycle [4]: 2%
Water content on desorption cycle 1 ([4]; at 30% RH): 24.3%
Starting water content in GVS [4]: 25.1%
Solubility residue (solid form) [5]: new solubility residue patterns
Structure (SMILES): O=C(NO)c1cnc(N2C[C@@H]3[C@H](C2)[C@H]3NCc2ccc3cc(F)ccc3n2)nc1 [Mesylate Form 3, N-hydroxy 2-{6-[(6-fluoro-quinolin-2-ylmethyl)-amino]-3-aza-bicyclo[3.1.0]hex-3-yl}pyrimidine-5-carboxamide]
Solid form by XRPD after static storage ([1]; 25° C./97% RH): remained unchanged; also recorded: Mesylate Form 3
Solid form by XRPD after static storage ([1]; 40° C./75% RH): conversion to the sesquihydrate Mesylate Form 5
Water loss, desorption cycle 1 ([4]; 30-20% RH): Desorption Cycle 1 22% water loss from 30-20% RH
XRPD post-GVS (solid form) [4]: XRPD Post-GVS: Poorly crystalline broad reflections may match
